Measurements as given in patent US20240101602A1, “ANTIMICROBIAL PEPTIDES AND METHOD OF PREVENTING OR TREATING INFECTION BY USING THE SAME” (priority 2020, published 2024).
Values after ≈ are worked out from the molar mass of the structure shown. Read-outs that look alike come from different tables or passages of the source. Non-standard residues stand in square brackets, D forms with d. Residues, ends and D or L forms follow the SMILES beside them.

Tests used:
[1] = tested on: Xanthomonas campestris pv. campestris strain Xcc17; test: IC50 of bacterial growth (OD600) in rich liquid medium; assay type: cell-based; settings: Xcc Xcc17, 24 h, purified peptides
Description: (§1) To measure the antimicrobial activity, single colony grown on an optimal rich agar medium for each bacterium was picked and grew in 3 mL of the same rich liquid medium for 4 to 6 h. The bacterial culture was then diluted in the same medium to give a final concentration of OD600=0.08 and then further diluted […] in the same medium. In each well of a 96-well polystyrene plate, 90 μL of the diluted culture was mixed with 10 μL of the peptide to give a peptide concentration of 0, 2, 10, and 20 μg/mL (final cell concentration is 5×10^5 CFU/mL). OD600 was measured after incubation at an optimal temperature for 24 h. IC50 was determined as the lowest peptide concentration inhibiting 50% of bacterial growth.

[2] = tested on: Xanthomonas euvesicatoria strain Xvt28; test: as above; assay type: cell-based; settings: Xev Xvt28, 24 h, purified peptides
Description: as §1

Eco DH5α = test: MIC and MBC by serial dilution in 96-well plate; assay type: cell-based, Escherichia coli; settings: Table 7
Description: (§2) The effect of peptide length on the antimicrobial activity was investigated by deciding the minimal inhibitory concentration (MIC) and minimal bactericidal concentration (MBC) for each peptide against the pathogen with the media and growth conditions of phytopathogenic bacteria and E. coli as described in Table 1. Single bacterial colony grown on an optimal rich agar medium was picked, and each grew in 3 mL of the same rich liquid medium for 4 to 6 h.
(§3) For experiments carried out in the rich medium, the bacterial broth culture was then diluted in the same medium to give a final concentration of OD600=0.08, and then further diluted 100 folds in the same medium.
(§4) For experiments carried out in the minimal medium, the bacterial cells were collected from the bacterial liquid culture by centrifugation, re-suspended in an optimal minimal medium to give a final concentration of OD600=0.08, and then further diluted 100 folds in the same minimal medium.
(§5) Fifty microliters of serially diluted peptides (2-fold the final concentration) were added in a 96-well polystyrene plate with 50 μL of the bacterial culture. The final concentrations of peptides were 0, 2, 4, 8, 16 and 32 μg/mL. The plates were incubated at an optimal temperature without shaking.
(§6) MBC was determined as the lowest peptide concentration at which no colonies formed.

[3] = tested on: Xanthomonas campestris pv. campestris strain Xcc17; test: MIC and MBC by serial dilution in 96-well plate; assay type: cell-based; settings: Xcc Xcc17; Table 7
Description: as §2, §3, §4, §5, §6

[4] = tested on: Xanthomonas euvesicatoria strain Xvt28; test: MIC and MBC by serial dilution in 96-well plate; assay type: cell-based; settings: Xev Xvt28; Table 7
Description: as §2, §3, §4, §5, §6

[5] = tested on: Pectobacterium carotovorum subsp. carotovorum; assay type: cell-based
Procedure, shortened: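 Bacteria were grown 4–6 h, set to OD600=0.08 in rich or minimal medium, then diluted 100-fold. This inoculum was mixed 1:1 with 2-fold serial peptide dilutions and incubated static at optimal temperature. MIC was read from growth and MBC taken as the lowest concentration giving no colonies.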

[6] = CD spectra of pepD in liposomes; assay type: physicochemical; settings: CD in water, DOPC, POPE/POPG (1:1, w/w) liposomes
Description: 1,2-dioleoyl-sn-glycero-3-phosphocholine (DOPC) is commonly used to mimic mammalian cell membrane. 1-Palmitoyl-2-oleoyl-sn-glycero-3-phosphoglycerol (POPG) has a negatively charged head group. The mixture of 1-palmitoyl-2-oleoyl-sn-glycero-3-phosphoethanolamine (POPE) and POPG is commonly used to mimic the negatively charged membrane surface of bacteria.
For the CD spectra of pepD in lipids, two kinds of liposomes DOPC and POPE/POPG (1:1, w/w) were prepared. DOPC (10 mg/mL) and POPE/POPG (14 mg/mL) were dissolved in chloroform/methanol (9/1, v/v) in a glass tube individually. The solvents were evaporated under the purge of nitrogen gas to form a thin lipid film on the tube surface. The tube was placed in vacuo overnight to completely remove the organic solvent. To rehydrate the lipid film, 400 μL deionized water was added and mixed in an Intelli-Mixer (rocker mode, 60 rpm) for one hour. Then, the water/lipid mixture was frozen in liquid nitrogen and thawed at 45° C. for 5 min. After five freeze-thaw cycles, liposomes were prepared by extruding the mixture through a polycarbonate filter (with 200-nm pore size) using an Avanti Mini-Extruder (Avanti Polar Lipids, USA). Purified pepD was dissolved in water (64 μg/mL) and mixed with an equal volume of the liposome suspension for CD measurement.

[7] = tested on: Escherichia coli strain DH5a; settings: DH5a, 24 h
[8] = tested on: Xanthomonas oryzae pv. oryzae strain Xoo28; settings: Xoo Xoo28; rich medium, 24 h, purified peptides
[9] = tested on: Xanthomonas oryzae pv. oryzae strain Xoo28; settings: Xoo Xoo28; Table 7
[10] = tested on: Agrobacterium tumefaciens strain Atu C58C1; settings: Atu C58C1; Table 7
[11] = tested on: Pseudomonas syringae pv. tomato strain DC3000
[12] = tested on: Pseudomonas syringae pv. syringae strain B728a; settings: Pss B728a; Table 7
red blood cells = assay type: cell-based, rat
Description: Further, the hemolytic activity of the antimicrobial peptides was tested. EDTA-treated rat whole blood was centrifuged at 840×g for 3 minutes at 4° C. to separate blood cells and plasma. The plasma was removed, and the blood cells were washed three times with PBS having the same volume as the original blood volume by gently turning the centrifuge tube upside down. After washing, ten microliters of blood cells were diluted in PBS 2000 times to count the cells. Finally, red blood cells were diluted to 5×10^8 cells/mL in PBS. Peptides were dissolved in water and filtered through a 0.2-μm filter to make a stock solution. The peptide concentration was quantitated by UV280. The peptide solution was diluted in PBS to different concentrations (5 times of tested concentration). Twenty microliters of peptide in PBS were mixed with 80 μL of red blood cell solution in a 96-well plate (V-bottom). […] The concentration of heme contained in each well was measured by UV405 using Infinite M1000 pro (Tecan). The hemolytic activity was calculated using the following formula: Hemolytic activity=[(F−F0)/(Ft−F0)]×100% • F is UV405 of the peptide-treated sample; • F0 is UV405 of sample without peptide (negative control); • Ft is UV405 of the Triton-treated sample (positive control).

[13] = tested on: Candida albicans 12-99 (fluconazole-resistant)
[14] = tested on: Candida albicans 89 (echinocandin-resistant)
[15] = tested on: Cryptococcus neoformans H99
[16] = tested on: Cryptococcus neoformans T1 (fluconazole-resistant)
[17] = tested on: Cryptococcus neoformans 89-610 (fluconazole-resistant)
[18] = tested on: Cryptococcus deuterogattii R265
[19] = tested on: Cryptococcus gattii WM276
[20] = tested on: Acinetobacter baumannii ATCC 17978
[21] = tested on: Klebsiella pneumonia NTUH-K2044
[22] = tested on: Staphylococcus aureus BCRC 10777
[23] = tested on: Staphylococcus epidermidis ATCC 14990
[24] = tested on: Pseudomonas aeruginosa ATCC 9027; settings: ATCC 9027
[25] = tested on: Salmonella typhimurium NCHU 15721; settings: murium NCHU 15721

Ac-WKKLKKLLKKLKKLLKKL-NH2 [pepD] showed an IC50 [1] of 4.0 µg/mL, an IC50 [2] of 4.0 µg/mL and an MBC (Eco DH5α) of 10.0 µg/mL. The MIC (Eco DH5α) was 10.0 µg/mL, the MBC [3] was 6.7 µg/mL and the MIC [3] was 2.7 µg/mL. The MBC [4] was 18.7 µg/mL, the MIC [4] was 5.3 µg/mL and the MIC [5] was 32.0 µg/mL. The MBC ([5]; Pcc, Table 7) was “— (“—” indicates no antimicrobial activity being detected at the highest peptide concentration (32 μg/mL) tested in this study.)”, the lipid selectivity [6] was “only interacts with negatively charged lipid” and the IC50 [7] was 10.0 µg/mL. The IC50 [8] was 8.0 µg/mL, the MIC (Candida albicans SC5314; SC5314, 48 h) was 16.0 µg/mL and the MBC [9] was 4.0 µg/mL. The MIC [9] was 4.0 µg/mL, the MBC [10] was “— (“—” indicates no antimicrobial activity being detected at the highest peptide concentration (32 μg/mL) tested in this study.)” and the MBC [11] was 24.0 µg/mL. The MIC [11] was 16.0 µg/mL, the MBC [12] was “— (“—” indicates no antimicrobial activity being detected at the highest peptide concentration (32 μg/mL) tested in this study.)” and the MIC [12] was 32.0 µg/mL.

For `CC(=O)N[C@@H](Cc1c[nH]c2ccccc12)C(=O)N[C@H](CCCCN)C(=O)N[C@H](CCCCN)C(=O)N[C@H](CC(C)C)C(=O)N[C@H](CCCCN)C(=O)N[C@H](CCCCN)C(=O)N[C@H](CC(C)C)C(=O)N[C@H](CC(C)C)C(=O)N[C@H](CCCCN)C(=O)N[C@H](CCCCN)C(=O)N[C@H](CC(C)C)C(=O)N[C@H](CCCCN)C(=O)N[C@H](CCCCN)C(=O)N[C@H](CC(C)C)C(N)=O` [pepdD2, Ac-Wkklkkllkklkkl-NH2] (Ac-W[dK][dK][dL][dK][dK][dL][dL][dK][dK][dL][dK][dK][dL]-NH2), the hemolytic activity (red blood cells) was “very little or non-hemolytic activity”, the MFC (Candida albicans SC5314; SC5314) was 32 µg/mL (≈ 17.4 µM) and the MIC (Candida albicans SC5314; SC5314) was 32 µg/mL (≈ 17.4 µM). For the same compound, the MFC [13] was 32 µg/mL (≈ 17.4 µM), the MIC [13] was 16 µg/mL (≈ 8.71 µM) and the MFC [14] was 32 µg/mL (≈ 17.4 µM). The MIC [14] was 32 µg/mL (≈ 17.4 µM), the MIC ([15]; Cryptococcus neoformans H99) was 4 µg/mL (≈ 2.18 µM) and the MFC ([15]; H99) was 4 µg/mL (≈ 2.18 µM). It also gave an MIC ([16]; Cryptococcus neoformans T1 (fluconazole-resistant)) of 2 µg/mL (≈ 1.09 µM), an MFC ([16]; T1 (fluconazole-resistant)) of 2 µg/mL (≈ 1.09 µM) and an MFC ([17]; 89-610 (fluconazole-resistant)) of 2 µg/mL (≈ 1.09 µM). For the same compound, the MIC ([17]; Cryptococcus neoformans 89-610 (fluconazole-resistant)) was 2 µg/mL (≈ 1.09 µM), the MFC [18] was 2 µg/mL (≈ 1.09 µM) and the MIC ([18]; Cryptococcus deuterogattii R265) was 2 µg/mL (≈ 1.09 µM). For the same compound, the MFC [19] was 2 µg/mL (≈ 1.09 µM), the MIC [19] was 2 µg/mL (≈ 1.09 µM) and the MBC [20] was 8 µg/mL (≈ 4.36 µM). The MBC [21] was 32 µg/mL (≈ 17.4 µM), the MIC [21] was 32 µg/mL (≈ 17.4 µM) and the MBC [22] was 32 µg/mL (≈ 17.4 µM). The MIC [22] was 32 µg/mL (≈ 17.4 µM), the MBC [23] was 32 µg/mL (≈ 17.4 µM) and the MIC [23] was 16 µg/mL (≈ 8.71 µM). The MBC [24] was 4 µg/mL (≈ 2.18 µM), the MIC [24] was 4 µg/mL (≈ 2.18 µM) and the MBC [25] was 16 µg/mL (≈ 8.71 µM). For the same compound, the MIC [25] was 16 µg/mL (≈ 8.71 µM).
